We go through 14 molecules from ChEMBL document CHEMBL1126937, “Synthesis of new 11 beta-substituted spirolactone derivatives. Relationship with affinity for mineralocorticoid and glucocorticoid receptors” (J Med Chem, 1993).

The test concerns the target T1, Mineralocorticoid receptor (Homo sapiens) (UniProt P08235).
T1 sequence (whole entry): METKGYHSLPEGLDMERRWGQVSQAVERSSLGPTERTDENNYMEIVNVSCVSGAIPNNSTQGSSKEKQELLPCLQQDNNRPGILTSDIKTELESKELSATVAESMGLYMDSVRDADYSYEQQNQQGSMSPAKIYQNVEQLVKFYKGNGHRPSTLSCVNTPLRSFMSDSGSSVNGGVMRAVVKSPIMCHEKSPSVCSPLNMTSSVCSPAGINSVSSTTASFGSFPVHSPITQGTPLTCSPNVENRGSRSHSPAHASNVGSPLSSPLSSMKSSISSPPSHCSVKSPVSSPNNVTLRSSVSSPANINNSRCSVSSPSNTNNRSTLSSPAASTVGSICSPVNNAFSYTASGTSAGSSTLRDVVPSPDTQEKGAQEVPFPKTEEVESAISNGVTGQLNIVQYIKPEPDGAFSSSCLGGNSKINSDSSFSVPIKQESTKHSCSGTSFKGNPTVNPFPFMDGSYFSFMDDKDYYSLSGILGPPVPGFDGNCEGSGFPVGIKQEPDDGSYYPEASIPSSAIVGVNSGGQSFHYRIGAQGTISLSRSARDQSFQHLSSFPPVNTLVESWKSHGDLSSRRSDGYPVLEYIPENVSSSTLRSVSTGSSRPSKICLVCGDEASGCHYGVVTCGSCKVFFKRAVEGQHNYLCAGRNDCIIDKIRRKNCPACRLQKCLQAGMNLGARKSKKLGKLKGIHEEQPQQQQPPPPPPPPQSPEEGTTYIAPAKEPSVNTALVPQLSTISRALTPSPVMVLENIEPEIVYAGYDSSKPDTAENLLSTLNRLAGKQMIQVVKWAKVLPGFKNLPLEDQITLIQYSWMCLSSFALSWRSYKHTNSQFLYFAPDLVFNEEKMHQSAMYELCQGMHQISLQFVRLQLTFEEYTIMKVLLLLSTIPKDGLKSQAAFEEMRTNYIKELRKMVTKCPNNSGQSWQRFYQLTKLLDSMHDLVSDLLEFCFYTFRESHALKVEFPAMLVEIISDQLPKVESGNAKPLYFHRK
Description: Displacement of [3H]aldosterone from mineralocorticoid receptor of rabbit kidney. The conditions noted are these: Oryctolagus cuniculus; target entry is the homologue from another species. (In a radioligand displacement assay an active substance lowers the binding of a labelled ligand.)
Take `C[C@]12CCC3=C4CCC(=O)C=C4CCC3C1CC[C@@]21CCC(=O)O1` (some centres undefined): the RBA turned out to be 13%. With `CC(=O)S[C@@H]1CC2=CC(=O)C=C[C@]2(C)[C@H]2CC[C@@]3(C)[C@@H]([C@@H]4C[C@@H]4[C@@]34CCC(=O)O4)[C@H]12` the figure was 21%. The same measure for `C[C@]12CCC(=O)C=C1CC[C@@H]1[C@@H]2[C@@H](O)C[C@]2(C=O)[C@@H](C(=O)CO)CC[C@@H]12`: 100%. The same measure for `C/C=C1\C[C@@]2(C)C(CC[C@@]23CCC(=O)O3)C2CCC3=CC(=O)CCC3=C12` (some centres undefined): 7%; for `COCCC[C@H]1C[C@@]2(C)C(CC[C@@]23CCC(=O)O3)C2CCC3=CC(=O)CCC3=C21` (some centres undefined): 0.5%.

The molecule `CC(=O)S[C@@H]1CC2=CC(=O)CC[C@]2(C)[C@H]2CC[C@@]3(C)[C@@H](CC[C@@]34CCC(=O)O4)[C@H]12` returned an RBA of 4%.

`C=C/C=C1\C[C@@]2(C)C(CC[C@@]23CCC(=O)O3)C2CCC3=CC(=O)CCC3=C12` (some centres undefined) displayed an RBA of 2%.

`C=C[C@H]1C[C@@]2(C)C(CC[C@@]23CCC(=O)O3)C2CCC3=CC(=O)CCC3=C21` (some centres undefined) had an RBA of 14%. Molecule `CC(C)(C)OCCC[C@H]1C[C@@]2(C)C(CC[C@@]23CCC(=O)O3)C2CCC3=CC(=O)CCC3=C21` (some centres undefined) gave an RBA below 0.1%. Turning to `C[C@H]1C[C@@]2(C)C(CC[C@@]23CCC(=O)O3)C2CCC3=CC(=O)CCC3=C21` (some centres undefined), the RBA stood at 6%.

`C[C@]12C[C@H](CCCO)C3=C4CCC(=O)C=C4CCC3C1CC[C@@]21CCC(=O)O1` (some centres undefined) returned an RBA below 0.1%. In turn, `C[C@@H]1C[C@H]2[C@@H]3CCC4=CC(=O)C=C[C@]4(C)[C@@]3(F)[C@@H](O)C[C@]2(C)[C@@]1(O)C(=O)CO` registered an RBA of 20%. The molecule `C=C=C[C@H]1C[C@@]2(C)C(CC[C@@]23CCC(=O)O3)C2CCC3=CC(=O)CCC3=C21` (some centres undefined) yielded an RBA of 110%. `C[C@]12CCC(=O)C=C1C=C[C@@H]1[C@@H]2CC[C@@]2(C)[C@H]1CC[C@@]21CCC(=O)O1` had an RBA of 1%.
